# In patent US8912188B2, “Substituted quinoxaline carboxylic acids for the inhibition of PASK” (BioEnergenix, LLC, priority 2011, dated 2014):
# Molecular target: T1, PASK (Invitrogen) (Homo sapiens, UniProt Q96RG2)
# T1 construct: IC50 Kinase Domain; purchased Invitrogen
# Test: PAS Kinase FRET Assay
# Assay type: biochemical
# Conditions: PAS kinase TR-FRET assay (665 nm/615 nm), 2 hours at 25° C.; read-out: IC50 Kinase Domain
# Text: Biochemical Assay for hPASK Activity
# The aim of the FRET assay is to determine the inhibition potential of test compounds on targeted kinase. This assay platform provides a homogenous screening method for measuring kinase activity by quantitating the amount of phospho-substrate in solution following a kinase reaction.
# In the presence of kinase and ATP, the Ulight-peptide is phosphorylated and captured by an anti-phospho-substrate antibody, which brings the Eu chelate donor and Ulight acceptor dyes into close proximity.
# Titration of kinase at 1 mM ATP was achieved via the following protocol. […] The contents of the plate were incubated at RT for 1 h. The reaction was stopped by adding 5 μl of stop solution to each test well followed by mixing and incubation at RT for 10 minutes. 5 μl of detection mix (detection antibody diluted in detection buffer) was added; the contents of the plate were mixed and then incubated in the dark for 1 hour at RT. […] The results were graphed to calculate the EC50.
# Titration of ATP at the EC50 concentration of kinase to determine ATP Km,app. was performed using the following method. […] The contents of the plate were and incubated at RT for 1 h. The reaction was stopped by adding 5 μl of stop solution to each test well followed by mixing and incubation at RT for 10 minutes. […] (detection antibody diluted in detection buffer) was added; the contents of the plate were mixed and then incubated in the dark for 1 hour at RT. […] The results were graphed to calculate the EC50 as the ATP Km,app.
# Compound screening was done via the following method. 10 mM stock solution of test compound in DMSO was prepared by dissolving test compound in DMSO at RT for 1 hour, and then sonicating at 100% output for 8 minutes. If compound is not soluble under this condition, it was diluted to 3 mM. Kinase reaction buffer was prepared containing 10 mM MgCl2, 50 mM HEPES, 1 mM EGTA, 0.01% TWEEN-20, 2 mM DTT. […] As a positive control, 2.5 μl of positive compound was added to assay wells, and 2.5 μl of DMSO to assay wells as vehicle control. Kinase solution was prepared in reaction buffer at 2× final assay concentration. Kinase solution (5 μl) was added to each well of the assay plate. The substrate and ATP solution was prepared in kinase reaction buffer at 4× final assay concentration. The kinase reaction was started by adding 2.5 μl of substrate+ATP mix solution to each well of the assay plate. The plate is mixed on a plate shaker; then covered and allowed to react for 2 hours in the dark at 25° C. without shaking. The reaction was stopped by adding 5 μl of stop solution to each test well followed by mixing and incubation at RT for 10 minutes in the dark. 5 μl of detection mix (detection antibody diluted in detection buffer) was added; the contents of the plate were mixed and then incubated in the dark for 1 hour at RT.
# T1 sequence (Q96RG2 999-1251 limits assumed): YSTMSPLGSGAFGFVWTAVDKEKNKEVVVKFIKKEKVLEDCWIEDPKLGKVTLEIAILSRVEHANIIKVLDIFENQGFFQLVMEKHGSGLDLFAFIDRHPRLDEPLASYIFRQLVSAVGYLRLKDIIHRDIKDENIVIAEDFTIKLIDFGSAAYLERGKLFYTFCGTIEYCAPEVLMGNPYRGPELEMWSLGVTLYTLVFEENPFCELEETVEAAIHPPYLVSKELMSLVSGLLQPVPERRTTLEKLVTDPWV
row,Compound,IC50 [µM]
1,"CC(C)N(C)c1nc2cc(C(=O)O)ccc2nc1-c1coc2ccccc12 [Example 1, 2-(Benzofuran-3-yl)-3-(isopropyl(methyl)amino)quinoxaline-6-carboxylic acid]",< 10
2,"CC(C)N(C)c1nc2cc(C(=O)O)ccc2nc1-c1cn[nH]c1 [Example 2, 3-(Isopropyl(methyl)amino)-2-(1H-pyrazol-4-yl)quinoxaline-6-carboxylic acid]",< 10
3,"CC(C)N(C)c1nc2cc(C(=O)O)ccc2nc1-c1ccc2cn[nH]c2c1 [Example 4, 2-(1H-Indazol-6-yl)-3-(isopropyl(methyl)amino)quinoxaline-6-carboxylic acid]",< 10
4,"CC(C)N(C)c1nc2cc(C(=O)O)ccc2nc1-c1ccc2cnn(C)c2c1 [Example 5, 3-(Isopropyl(methyl)amino)-2-(1-methyl-1H-indazol-6-yl)quinoxaline-6-carboxylic acid]",< 10
5,"COc1ccc2[nH]c(-c3nc4ccc(C(=O)O)cc4nc3N(C)C(C)C)cc2c1 [Example 6, 3-(Isopropyl(methyl)amino)-2-(5-methoxy-1H-indol-2-yl)quinoxaline-6-carboxylic acid]",< 10
6,"CC(C)N(C)c1nc2cc(C(=O)O)ccc2nc1-c1cncc(Br)c1 [Example 7, 2-(5-Bromopyridin-3-yl)-3-(isopropyl(methyl)amino)quinoxaline-6-carboxylic acid]",< 10
7,"CC(C)N(C)c1nc2cc(C(=O)O)ccc2nc1-c1ccc2[nH]ncc2c1 [Example 8, 2-(1H-Indazol-5-yl)-3-(isopropyl(methyl)amino)quinoxaline-6-carboxylic acid]",< 10
8,"CC(C)N(C)c1nc2cc(C(=O)O)ccc2nc1-c1c[nH]nc1C(F)(F)F [Example 9, 3-(Isopropyl(methyl)amino)-2-(3-(trifluoromethyl)-1H-pyrazol-4-yl)quinoxaline-6-carboxylic acid]",< 10
9,"CC(C)N(C)c1nc2cc(C(=O)O)ccc2nc1-c1ccc(NC(=O)OC(C)(C)C)nc1 [Example 10, 2-(6-(tert-Butoxycarbonylamino)pyridin-3-yl)-3-(isopropyl(methyl)amino)quinoxaline-6-carboxylic acid]",< 10
10,"CC(C)N(C)c1nc2cc(C(=O)O)ccc2nc1-c1ccnc(F)c1 [Example 11, 2-(2-Fluoropyridin-4-yl)-3-(isopropyl(methyl)amino)quinoxaline-6-carboxylic acid]",< 10
11,"CC(C)N(C)c1nc2cc(C(=O)O)ccc2nc1-c1ccc(N2CCCC2)nc1 [Example 12, 3-(Isopropyl(methyl)amino)-2-(6-(pyrrolidin-1-yl)pyridin-3-yl)quinoxaline-6-carboxylic acid]",> 10
12,"CC(C)N(C)c1nc2cc(C(=O)O)ccc2nc1-c1ccc(F)nc1 [Example 13, 2-(6-Fluoropyridin-3-yl)-3-(isopropyl(methyl)amino)quinoxaline-6-carboxylic acid]",< 10
13,"CC(C)N(C)c1nc2cc(C(=O)O)ccc2nc1-c1ccc(N)nc1 [Example 16, 2-(6-Aminopyridin-3-yl)-3-(isopropyl(methyl)amino)quinoxaline-6-carboxylic acid]",< 10
14,"COc1ccc2oc(-c3nc4ccc(C(=O)O)cc4nc3N(C)C(C)C)cc2c1 [Example 17, 3-(Isopropyl(methyl)amino)-2-(5-methoxybenzofuran-2-yl)quinoxaline-6-carboxylic acid]",< 10
15,"CC(C)N(C)c1nc2cc(C(=O)O)ccc2nc1-c1ccc2c(c1)OCCCO2 [Example 20, 2-(3,4-Dihydro-2H-benzo[b][1,4]dioxepin-7-yl)-3-(isopropyl(methyl)amino)quinoxaline-6-carboxylic acid]",< 10

# Continued, values first:
row,IC50 [µM],Compound
1,< 10,"CC(C)N(C)c1nc2cc(C(=O)O)ccc2nc1-c1cc2cc(F)ccc2s1 [Example 24, 2-(5-Fluorobenzo[b]thiophen-2-yl)-3-(isopropyl(methyl)amino)quinoxaline-6-carboxylic acid]"
2,< 10,"CC(C)N(C)c1nc2cc(C(=O)O)ccc2nc1-c1ccc2c(cnn2C)c1 [Example 25, 3-(Isopropyl(methyl)amino)-2-(1-methyl-1H-indazol-5-yl)quinoxaline-6-carboxylic acid]"
3,< 10,"CCn1ncc2cc(-c3nc4ccc(C(=O)O)cc4nc3N(C)C(C)C)ccc21 [Example 26, 2-(1-Ethyl-1H-indazol-5-yl)-3-(isopropyl(methyl)amino)quinoxaline-6-carboxylic acid]"
4,< 10,"CCN(CC)c1nc2cc(C(=O)O)ccc2nc1-c1cc2ccccc2o1 [Example 27, 2-(1-Benzofuran-2-yl)-3-(diethylamino)quinoxaline-6-carboxylic acid]"
5,< 10,"CN(c1nc2cc(C(=O)O)ccc2nc1-c1ccc2[nH]ncc2c1)C1CC1 [Example 29, 3-(Cyclopropyl(methyl)amino)-2-(1H-indazol-5-yl)quinoxaline-6-carboxylic acid]"
6,< 10,"CC(C)N(C)c1nc2cc(C(=O)O)ccc2nc1-c1ccc2occc2c1 [Example 30, 2-(1-Benzofuran-5-yl)-3-[methyl(propan-2-yl)amino]quinoxaline-6-carboxylic acid]"
7,< 10,"CC(C)N(C)c1nc2cc(C(=O)O)ccc2nc1-c1cc2ccc(Cl)cc2o1 [Example 31, 2-(6-Chloro-1-benzofuran-2-yl)-3-[methyl(propan-2-yl)amino]quinoxaline-6-carboxylic acid]"
8,< 10,"C[C@H]1CCCN1c1nc2cc(C(=O)O)ccc2nc1-c1cc2ccc(F)cc2o1 [Example 32, (S)-2-(6-Fluorobenzofuran-2-yl)-3-(2-methylpyrrolidin-1-yl)quinoxaline-6-carboxylic acid]"
9,< 10,"CC(C)N(C)c1nc2cc(C(=O)O)ccc2nc1-c1cc2cc(F)c(F)cc2o1 [Example 33, 2-(5,6-Difluorobenzofuran-2-yl)-3-(isopropyl(methyl)amino)quinoxaline-6-carboxylic acid]"
10,< 10,"C[C@H]1CCCN1c1nc2cc(C(=O)O)ccc2nc1-c1ccc2c(c1)OC(F)(F)O2 [Example 34, (S)-2-(2,2-Difluorobenzo[d][1,3]dioxol-5-yl)-3-(2-methylpyrrolidin-1-yl)quinoxaline-6-carboxylic acid]"
11,< 10,"O=C(O)c1ccc2nc(-c3ccc4[nH]ncc4c3)c(N3CCCCC3)nc2c1 [Example 35, 2-(1H-Indazol-5-yl)-3-(piperidin-1-yl)quinoxaline-6-carboxylic acid]"
12,< 10,"O=C(O)c1ccc2nc(-c3ccc4[nH]ncc4c3)c(N3CCCCCC3)nc2c1 [Example 36, 3-(Azepan-1-yl)-2-(1H-indazol-5-yl)quinoxaline-6-carboxylic acid]"
13,< 10,"O=C(O)c1ccc2nc(-c3ccc4[nH]ccc4c3)c(N3CCCCCC3)nc2c1 [Example 37, 3-(Azepan-1-yl)-2-(1H-indol-5-yl)quinoxaline-6-carboxylic acid]"
14,< 10,"CCN(CC)c1nc2cc(C(=O)O)ccc2nc1-c1ccc2[nH]ccc2c1 [Example 38, 3-(Diethylamino)-2-(1H-indol-5-yl)quinoxaline-6-carboxylic acid]"
15,< 10,"O=C(O)c1ccc2nc(-c3cc4cc(F)ccc4o3)c(N3CCCCCC3)nc2c1 [Example 39, 3-(Azepan-1-yl)-2-(5-fluorobenzofuran-2-yl)quinoxaline-6-carboxylic acid]"
